From article PMC6540285, “Evaluation of Protein Kinase Inhibitors with PLK4 Cross-Over Potential in a Pre-Clinical Model of Cancer” (International Journal of Molecular Sciences, 2019)

Legend:
DCAMKL1 (DCLK1) = DCAMKL1 (DCLK1) (Homo sapiens, UniProt O15075); assay: SelectScreen kinase profiling, ZLYTE; assay type: biochemical
MAPK13 (p38 delta) = MAPK13 (p38 delta) (Homo sapiens, UniProt O15264); assay: SelectScreen kinase profiling, ZLYTE; assay type: biochemical
RET Y791F = RET Y791F (Homo sapiens, UniProt P07949, Y791F); assay: SelectScreen kinase profiling, ZLYTE; assay type: biochemical
Chain of RET Y791F (P07949 29-1114 Y791F): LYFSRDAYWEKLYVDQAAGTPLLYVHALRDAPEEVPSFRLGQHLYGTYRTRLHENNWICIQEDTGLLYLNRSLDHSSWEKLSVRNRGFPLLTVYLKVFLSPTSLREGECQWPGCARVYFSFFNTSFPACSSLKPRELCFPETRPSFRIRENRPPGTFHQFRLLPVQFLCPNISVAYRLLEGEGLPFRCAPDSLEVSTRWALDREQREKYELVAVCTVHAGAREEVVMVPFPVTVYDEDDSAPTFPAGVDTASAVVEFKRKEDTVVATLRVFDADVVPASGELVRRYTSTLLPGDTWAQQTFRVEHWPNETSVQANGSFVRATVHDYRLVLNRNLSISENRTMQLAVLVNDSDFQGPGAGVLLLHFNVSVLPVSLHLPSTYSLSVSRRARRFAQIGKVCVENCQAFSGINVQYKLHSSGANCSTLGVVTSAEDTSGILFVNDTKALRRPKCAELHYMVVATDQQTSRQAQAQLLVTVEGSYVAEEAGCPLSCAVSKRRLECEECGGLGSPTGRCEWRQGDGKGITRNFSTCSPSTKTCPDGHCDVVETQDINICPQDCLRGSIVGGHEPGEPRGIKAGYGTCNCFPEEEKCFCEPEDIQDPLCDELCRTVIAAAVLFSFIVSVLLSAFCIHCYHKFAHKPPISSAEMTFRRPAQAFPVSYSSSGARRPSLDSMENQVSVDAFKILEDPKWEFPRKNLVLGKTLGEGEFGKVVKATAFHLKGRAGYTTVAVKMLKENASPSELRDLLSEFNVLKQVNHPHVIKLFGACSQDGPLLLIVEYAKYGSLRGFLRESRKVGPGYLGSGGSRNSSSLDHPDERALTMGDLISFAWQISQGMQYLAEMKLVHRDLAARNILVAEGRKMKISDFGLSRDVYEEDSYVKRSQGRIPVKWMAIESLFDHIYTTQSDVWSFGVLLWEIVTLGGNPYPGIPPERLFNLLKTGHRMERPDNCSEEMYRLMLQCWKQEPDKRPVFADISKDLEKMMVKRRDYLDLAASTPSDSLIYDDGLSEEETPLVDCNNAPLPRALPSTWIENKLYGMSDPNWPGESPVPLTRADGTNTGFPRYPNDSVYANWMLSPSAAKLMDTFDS

CASK = CASK (Homo sapiens, UniProt O14936); assay: SelectScreen kinase profiling, LanthaScreen binding
FRAP1 (mTOR) = FRAP1 (mTOR) (Homo sapiens, UniProt P42345); assay: SelectScreen kinase profiling, ZLYTE; assay type: biochemical
AKT2 (PKB beta) = AKT2 (PKB beta) (Homo sapiens, UniProt P31751); assay: SelectScreen kinase profiling, ZLYTE; assay type: biochemical
ALK T1151_L1152insT = ALK T1151_L1152insT (Homo sapiens, UniProt Q9UM73, INS1151T); assay: SelectScreen kinase profiling, LanthaScreen binding
Chain of ALK T1151_L1152insT (Q9UM73 with tags, fused parts or gaps INS1151T limits assumed): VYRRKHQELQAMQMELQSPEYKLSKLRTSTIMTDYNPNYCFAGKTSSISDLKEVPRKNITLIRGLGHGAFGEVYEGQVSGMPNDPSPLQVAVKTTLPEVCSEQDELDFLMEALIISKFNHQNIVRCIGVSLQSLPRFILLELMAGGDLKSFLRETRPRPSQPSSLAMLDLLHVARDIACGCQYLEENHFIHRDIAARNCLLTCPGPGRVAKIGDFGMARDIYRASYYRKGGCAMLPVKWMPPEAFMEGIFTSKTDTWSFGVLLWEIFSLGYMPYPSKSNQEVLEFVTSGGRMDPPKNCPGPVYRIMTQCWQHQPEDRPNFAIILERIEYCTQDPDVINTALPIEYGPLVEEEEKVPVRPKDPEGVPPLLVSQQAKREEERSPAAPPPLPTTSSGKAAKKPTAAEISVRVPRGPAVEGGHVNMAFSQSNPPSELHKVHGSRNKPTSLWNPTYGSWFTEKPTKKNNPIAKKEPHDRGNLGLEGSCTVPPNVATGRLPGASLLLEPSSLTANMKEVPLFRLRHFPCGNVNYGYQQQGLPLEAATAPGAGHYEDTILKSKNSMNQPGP

PDGFRA D842V = PDGFRA D842V (Homo sapiens, UniProt P16234, D842V); assay: SelectScreen kinase profiling, ZLYTE; assay type: biochemical
EPHA6 = EPHA6 (Homo sapiens, UniProt Q9UF33); assay: SelectScreen kinase profiling, LanthaScreen binding; conditions: EPHA6, 10 µM
Chain of EPHA6 (Q9UF33 23-1036): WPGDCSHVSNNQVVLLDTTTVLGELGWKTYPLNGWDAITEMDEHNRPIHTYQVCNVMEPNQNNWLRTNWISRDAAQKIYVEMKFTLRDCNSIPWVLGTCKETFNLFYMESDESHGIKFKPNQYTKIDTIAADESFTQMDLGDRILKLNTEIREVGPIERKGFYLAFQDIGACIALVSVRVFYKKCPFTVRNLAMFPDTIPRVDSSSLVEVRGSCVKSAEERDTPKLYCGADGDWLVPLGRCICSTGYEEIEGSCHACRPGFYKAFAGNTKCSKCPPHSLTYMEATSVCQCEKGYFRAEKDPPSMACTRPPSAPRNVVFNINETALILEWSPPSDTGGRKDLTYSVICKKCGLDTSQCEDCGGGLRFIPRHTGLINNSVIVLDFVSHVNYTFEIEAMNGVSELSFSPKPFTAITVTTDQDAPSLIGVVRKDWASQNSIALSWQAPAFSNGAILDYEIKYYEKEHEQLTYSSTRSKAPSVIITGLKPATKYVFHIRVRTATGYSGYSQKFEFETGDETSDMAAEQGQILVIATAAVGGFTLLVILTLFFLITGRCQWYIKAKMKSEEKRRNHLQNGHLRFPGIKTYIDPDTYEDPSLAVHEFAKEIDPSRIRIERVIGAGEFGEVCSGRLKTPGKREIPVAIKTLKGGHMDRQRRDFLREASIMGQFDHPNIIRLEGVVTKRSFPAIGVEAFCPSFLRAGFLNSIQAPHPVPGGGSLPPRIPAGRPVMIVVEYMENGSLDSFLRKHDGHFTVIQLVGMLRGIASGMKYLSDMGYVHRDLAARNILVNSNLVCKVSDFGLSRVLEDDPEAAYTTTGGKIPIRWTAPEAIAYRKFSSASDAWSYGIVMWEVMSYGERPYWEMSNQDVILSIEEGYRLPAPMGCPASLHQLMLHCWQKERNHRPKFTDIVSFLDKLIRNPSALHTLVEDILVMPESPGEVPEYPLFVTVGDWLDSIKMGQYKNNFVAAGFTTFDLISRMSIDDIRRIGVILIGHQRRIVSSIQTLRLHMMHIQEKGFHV

FGFR3 G697C = FGFR3 G697C (Homo sapiens, UniProt P22607, G697C); assay: as above
MAPK10 (JNK3) = MAPK10 (JNK3) (Homo sapiens, UniProt P53779); assay: as above
EEF2K = EEF2K (Homo sapiens, UniProt O00418); assay: SelectScreen kinase profiling, ZLYTE; assay type: biochemical
ABL1 F317I = ABL1 F317I (Homo sapiens, UniProt P00519, F317I); assay: SelectScreen kinase profiling, ZLYTE; assay type: biochemical
JAK3 = JAK3 (Homo sapiens, UniProt P52333); assay: SelectScreen kinase profiling, ZLYTE; assay type: biochemical; conditions: JAK3, 10 µM
Chain of JAK3 (P52333 whole entry): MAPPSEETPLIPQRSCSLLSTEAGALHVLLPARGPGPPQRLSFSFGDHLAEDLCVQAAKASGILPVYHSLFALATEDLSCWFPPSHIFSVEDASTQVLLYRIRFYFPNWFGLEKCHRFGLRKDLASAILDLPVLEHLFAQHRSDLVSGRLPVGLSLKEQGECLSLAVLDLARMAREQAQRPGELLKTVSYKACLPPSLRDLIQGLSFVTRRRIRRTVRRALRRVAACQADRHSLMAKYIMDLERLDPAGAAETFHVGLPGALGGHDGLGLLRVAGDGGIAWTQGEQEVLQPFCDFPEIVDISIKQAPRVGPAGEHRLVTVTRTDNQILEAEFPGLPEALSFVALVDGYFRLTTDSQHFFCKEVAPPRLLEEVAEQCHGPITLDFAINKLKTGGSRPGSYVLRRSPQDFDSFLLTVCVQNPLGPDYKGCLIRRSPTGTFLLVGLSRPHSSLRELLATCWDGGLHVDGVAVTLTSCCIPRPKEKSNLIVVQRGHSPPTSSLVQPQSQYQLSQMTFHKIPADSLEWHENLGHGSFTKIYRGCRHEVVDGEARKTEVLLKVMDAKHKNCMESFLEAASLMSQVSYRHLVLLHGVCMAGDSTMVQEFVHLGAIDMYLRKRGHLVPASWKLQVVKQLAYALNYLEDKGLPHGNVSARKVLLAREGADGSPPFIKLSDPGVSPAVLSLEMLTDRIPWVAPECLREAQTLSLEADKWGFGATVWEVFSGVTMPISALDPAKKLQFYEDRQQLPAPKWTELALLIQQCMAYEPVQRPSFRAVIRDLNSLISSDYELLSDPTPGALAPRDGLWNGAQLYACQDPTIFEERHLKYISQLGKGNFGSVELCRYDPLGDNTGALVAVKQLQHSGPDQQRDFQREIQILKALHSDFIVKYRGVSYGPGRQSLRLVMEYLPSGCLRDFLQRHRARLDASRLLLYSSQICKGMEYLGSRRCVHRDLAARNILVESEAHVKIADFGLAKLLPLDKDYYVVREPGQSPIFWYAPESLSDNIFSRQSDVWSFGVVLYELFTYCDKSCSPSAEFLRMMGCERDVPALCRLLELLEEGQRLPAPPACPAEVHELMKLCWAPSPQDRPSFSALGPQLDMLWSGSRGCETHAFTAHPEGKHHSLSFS

DNA-PK = DNA-PK (Homo sapiens, UniProt P78527); assay: SelectScreen kinase profiling, ZLYTE; assay type: biochemical
MAPKAPK2 = MAPKAPK2 (Homo sapiens, UniProt P49137); assay: SelectScreen kinase profiling, ZLYTE; assay type: biochemical; conditions: MAPKAPK2, 10 µM
EIF2AK2 (PKR) = EIF2AK2 (PKR) (Homo sapiens, UniProt P19525); assay: SelectScreen kinase profiling, LanthaScreen binding
NEK8 = NEK8 (Homo sapiens, UniProt Q86SG6); assay: as above; conditions: NEK8, 10 µM
PASK = PASK (Homo sapiens, UniProt Q96RG2); assay: SelectScreen kinase profiling, ZLYTE; assay type: biochemical
Chain of PASK (Q96RG2 whole entry): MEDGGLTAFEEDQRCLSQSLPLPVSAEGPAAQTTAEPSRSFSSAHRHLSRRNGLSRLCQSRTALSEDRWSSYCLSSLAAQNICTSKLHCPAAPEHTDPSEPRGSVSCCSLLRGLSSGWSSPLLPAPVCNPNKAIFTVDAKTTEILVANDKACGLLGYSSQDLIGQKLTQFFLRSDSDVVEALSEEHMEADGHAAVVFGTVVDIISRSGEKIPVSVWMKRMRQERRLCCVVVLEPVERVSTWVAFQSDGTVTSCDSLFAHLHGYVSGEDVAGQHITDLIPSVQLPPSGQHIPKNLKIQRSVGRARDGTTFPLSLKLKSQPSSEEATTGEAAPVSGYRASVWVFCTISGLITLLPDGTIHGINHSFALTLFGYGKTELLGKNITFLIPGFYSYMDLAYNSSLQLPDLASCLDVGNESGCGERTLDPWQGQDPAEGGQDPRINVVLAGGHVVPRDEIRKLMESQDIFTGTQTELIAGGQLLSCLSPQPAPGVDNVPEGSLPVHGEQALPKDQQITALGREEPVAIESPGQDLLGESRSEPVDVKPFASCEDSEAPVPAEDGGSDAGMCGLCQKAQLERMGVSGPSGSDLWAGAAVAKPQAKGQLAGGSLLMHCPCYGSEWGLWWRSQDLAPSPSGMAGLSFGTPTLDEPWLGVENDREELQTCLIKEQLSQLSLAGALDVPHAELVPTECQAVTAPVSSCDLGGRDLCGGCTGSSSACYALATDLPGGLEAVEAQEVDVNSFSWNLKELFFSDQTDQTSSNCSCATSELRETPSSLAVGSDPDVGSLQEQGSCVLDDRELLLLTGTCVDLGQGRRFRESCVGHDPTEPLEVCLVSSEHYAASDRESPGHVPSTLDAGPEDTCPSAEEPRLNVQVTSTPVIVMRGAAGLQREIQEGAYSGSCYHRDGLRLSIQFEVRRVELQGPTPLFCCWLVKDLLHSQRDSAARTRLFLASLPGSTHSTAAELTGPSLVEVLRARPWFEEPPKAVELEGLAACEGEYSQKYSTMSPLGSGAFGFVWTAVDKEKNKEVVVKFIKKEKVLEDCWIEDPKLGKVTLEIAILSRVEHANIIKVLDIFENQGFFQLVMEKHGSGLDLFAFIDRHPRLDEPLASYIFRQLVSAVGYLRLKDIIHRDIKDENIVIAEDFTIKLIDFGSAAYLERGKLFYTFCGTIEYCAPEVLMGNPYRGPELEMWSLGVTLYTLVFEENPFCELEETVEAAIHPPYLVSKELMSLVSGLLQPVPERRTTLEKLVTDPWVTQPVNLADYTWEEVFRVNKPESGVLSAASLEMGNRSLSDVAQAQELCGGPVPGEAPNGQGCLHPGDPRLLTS

ABL2 (Arg) = ABL2 (Arg) (Homo sapiens, UniProt P42684); assay: SelectScreen kinase profiling, ZLYTE; assay type: biochemical
P450 2J2 = P450 2J2 (Homo sapiens, UniProt P51589); assay: SelectScreen P450 Vivid biochemical assay; conditions: 10000nM; substrate MOBFC
CHEK2 (CHK2) = CHEK2 (CHK2) (Homo sapiens, UniProt O96017); assay: SelectScreen kinase profiling, ZLYTE; assay type: biochemical
MAP4K5 (KHS1) = MAP4K5 (KHS1) (Homo sapiens, UniProt Q9Y4K4); assay: SelectScreen kinase profiling, ZLYTE; assay type: biochemical
CAMK2G (CaMKII gamma) = CAMK2G (CaMKII gamma) (Homo sapiens, UniProt Q13555); assay: SelectScreen kinase profiling, LanthaScreen binding
PRKCB1 (PKC beta I) = PRKCB1 (PKC beta I) (Homo sapiens, UniProt P05771); assay: SelectScreen kinase profiling, ZLYTE; assay type: biochemical
CDK6/cyclin D1 = CDK6/cyclin D1 (Homo sapiens, UniProt Q00534); assay: SelectScreen kinase profiling, Adapta; assay type: biochemical; conditions: CDK6/cyclin D1, 10 µM
IRAK3 = IRAK3 (Homo sapiens, UniProt Q9Y616); assay: SelectScreen kinase profiling, LanthaScreen binding; conditions: IRAK3, 10 µM
FGFR3 K650E = FGFR3 K650E (Homo sapiens, UniProt P22607, K650E); assay: SelectScreen kinase profiling, ZLYTE; assay type: biochemical
MAP2K2 (MEK2) = MAP2K2 (MEK2) (Homo sapiens, UniProt P36507); assay: SelectScreen kinase profiling, ZLYTE; assay type: biochemical
MKNK2 (MNK2) = MKNK2 (MNK2) (Homo sapiens, UniProt Q9HBH9); assay: SelectScreen kinase profiling, LanthaScreen binding
EPHB1 = EPHB1 (Homo sapiens, UniProt P54762); assay: SelectScreen kinase profiling, ZLYTE; assay type: biochemical; conditions: EPHB1, 10 µM
MAPK14 (p38 alpha) = MAPK14 (p38 alpha) (Homo sapiens, UniProt Q16539); assay: SelectScreen kinase profiling, ZLYTE; assay type: biochemical
GRK1 = GRK1 (Homo sapiens, UniProt Q15835); assay: SelectScreen kinase profiling, LanthaScreen binding; conditions: GRK1, 10 µM
PRKCI (PKC iota) = PRKCI (PKC iota) (Homo sapiens, UniProt P41743); assay: SelectScreen kinase profiling, ZLYTE; assay type: biochemical
AURKC (Aurora C) = AURKC (Aurora C) (Homo sapiens, UniProt Q9UQB9); assay: SelectScreen kinase profiling, ZLYTE; assay type: biochemical
CLK4 = CLK4 (Homo sapiens, UniProt Q9HAZ1); assay: SelectScreen kinase profiling, LanthaScreen binding; conditions: CLK4, 10 µM
MAP3K3 (MEKK3) = MAP3K3 (MEKK3) (Homo sapiens, UniProt Q99759); assay: as above
CDK9/cyclin T1 = CDK9/cyclin T1 (Homo sapiens, UniProt P50750); assay: SelectScreen kinase profiling, Adapta; assay type: biochemical; conditions: CDK9/cyclin T1, 10 µM
MERTK (cMER) = MERTK (cMER) (Homo sapiens, UniProt Q12866); assay: SelectScreen kinase profiling, ZLYTE; assay type: biochemical
AURKB (Aurora B) = AURKB (Aurora B) (Homo sapiens, UniProt Q96GD4); assay: SelectScreen kinase profiling, ZLYTE; assay type: biochemical

SMILES: O=C(c1ccc(/C=C/c2n[nH]c3ccccc23)cc1)N1CCNCC1 [KW-2449]
- inhibition at 10 µM (DCAMKL1 (DCLK1)): 57%
- inhibition at 10 µM (MAPK13 (p38 delta)): 30%
- inhibition at 10 µM (RET Y791F): 100%
- inhibition at 10 µM (CASK): -63%
- inhibition at 10 µM (FRAP1 (mTOR)): 9%
- inhibition at 10 µM (AKT2 (PKB beta)): 29%
- inhibition at 10 µM (ALK T1151_L1152insT): 26%
- inhibition at 10 µM (PDGFRA D842V): 98%
- inhibition at 10 µM (EPHA6): 73%
- inhibition at 10 µM (FGFR3 G697C): 78%
- inhibition at 10 µM (MAPK10 (JNK3)): 88%
- inhibition at 10 µM (EEF2K): -1%
- inhibition at 10 µM (ABL1 F317I): 94%
- inhibition at 10 µM (JAK3): 98%
- inhibition at 10 µM (DNA-PK): 24%
- inhibition at 10 µM (MAPKAPK2): 28%
- inhibition at 10 µM (EIF2AK2 (PKR)): 7%
- inhibition at 10 µM (NEK8): 30%
- inhibition at 10 µM (PASK): 10%
- inhibition at 10 µM (ABL2 (Arg)): 98%
- % Inhibition 2J2 MOBFC (P450 2J2): 96%
- inhibition at 10 µM (CHEK2 (CHK2)): 100%
- inhibition at 10 µM (MAP4K5 (KHS1)): 102%
- inhibition at 10 µM (CAMK2G (CaMKII gamma)): -110%
- inhibition at 10 µM (PRKCB1 (PKC beta I)): 19%
- inhibition at 10 µM (CDK6/cyclin D1): 82%
- inhibition at 10 µM (IRAK3): 31%
- inhibition at 10 µM (FGFR3 K650E): 97%
- inhibition at 10 µM (MAP2K2 (MEK2)): 75%
- inhibition at 10 µM (MKNK2 (MNK2)): 68%
- inhibition at 10 µM (EPHB1): 97%
- inhibition at 10 µM (MAPK14 (p38 alpha)): 33%
- inhibition at 10 µM (GRK1): 25%
- inhibition at 10 µM (PRKCI (PKC iota)): 7%
- inhibition at 10 µM (AURKC (Aurora C)): 98%
- inhibition at 10 µM (CLK4): 84%
- inhibition at 10 µM (MAP3K3 (MEKK3)): 82%
- inhibition at 10 µM (CDK9/cyclin T1): 82%
- inhibition at 10 µM (MERTK (cMER)): 93%
- inhibition at 10 µM (AURKB (Aurora B)): 102%
